Values quoted from earlier work in patent US20230270982A1, “DEVICES FOR REGIO-SPECIFIC RELEASE OF CARRIED DRUG AT ILEOCECAL REGION” (Teva Pharmaceutical Industries Ltd., priority 2020, published 2023).

Key:
[1] = test system: inflammatory bowel disease in mice; settings: given topically
[2] = oral ester prodrug; extensive intestinal esterase degradation

Row | Compound | treating UC [1] | bioavailability of the prodrug [2]
1 | glatiramer acetate | effective | –
2 | CC(C)OC(=O)OCOP(=O)(CO[C@H](C)Cn1cnc2c(N)ncnc21)OCOC(=O)OC(C)C [Tenofovir disoproxil] | – | about 30%
